The source of these data is ChEMBL document CHEMBL1121451, “Neuroleptic activity in 5-aryltetrahydro-gamma-carbolines” (J Med Chem, 1980).

Holding throughout (format): functional
The species entered for experiment [1] is Rattus norvegicus. Nature of the experiment: Inhibition of amphetamine induced stereotypy in rats; pretreated 1 hr before amphetamine.
Experiment [2] concerns Rattus norvegicus. Nature of the experiment: Tested for neuroleptic activity by measuring antagonism of d-amphetamine sulfate at intraperitoneal dosage of 5 mg/kg, after 5 hours in rat. The settings on record: ip.
The test system of experiment [3] is Rattus norvegicus. Nature of the experiment: Tested for neuroleptic activity by measuring antagonism of d-amphetamine sulfate at intraperitoneal dosage of 5 mg/kg, after 24 hours in rat. The settings on record: ip.
Experiment [4] has as its system Rattus norvegicus. Nature of the experiment: Tested for neuroleptic activity by measuring antagonism of d-amphetamine sulfate at intraperitoneal dosage of 5 mg/kg, after 1 hour in rat; Range is 3.2-10. The settings on record: ip.
For experiment [5], the system named is Rattus norvegicus. Nature of the experiment: Tested for neuroleptic activity by measuring antagonism of d-amphetamine sulfate at intraperitoneal dosage of 5 mg/kg, after 1 hour in rat; Range is 10-32. The settings on record: ip.
The subject of experiment [6] is Rattus norvegicus. Nature of the experiment: Tested for neuroleptic activity by measuring antagonism of d-amphetamine sulfate at intraperitoneal dosage of 5 mg/kg, after 5 hours in rat; Range is 10-32. Particulars: ip.
Experiment [7] has as its system Rattus norvegicus. In words: Tested for neuroleptic activity by measuring antagonism of d-amphetamine sulfate at intraperitoneal dosage of 5 mg/kg, after 1 hour in rat; Range is 1.0-3.2. Particulars: ip.
The subject of experiment [8] is Rattus norvegicus. In words: Tested for neuroleptic activity by measuring antagonism of d-amphetamine sulfate at intraperitoneal dosage of 5 mg/kg, after 5 hours in rat; Range is 3.2-10. Particulars: ip.
The test system of experiment [9] is Rattus norvegicus. Nature of the experiment: Tested for neuroleptic activity by measuring antagonism of d-amphetamine sulfate at intraperitoneal dosage of 5 mg/kg, after 5 hours in rat; Range is 1.0-3.2. The settings on record: ip.
The test system of experiment [10] is Rattus norvegicus. In words: Tested for neuroleptic activity by measuring antagonism of d-amphetamine sulfate at intraperitoneal dosage of 5 mg/kg, after 1 hour in rat; Range is 0.32-1.0. Particulars: ip.

What is called ED50 is the midpoint of the dose-response relation. Consider `Fc1ccc(C(=CCCN2CCc3c(c4cc(F)ccc4n3-c3ccc(F)cc3)C2)c2ccc(F)cc2)cc1`, for which the ED50 in experiment [1], in experiment [2] and in [3] was over 32 mg/kg throughout.

Consider `OC(CCCN1CCc2[nH]c3ccc(F)cc3c2C1)c1ccc(F)cc1` (centres undefined), for which the ED50 in experiment [2] is over 10 mg/kg; in experiment [4], 3.2 mg/kg; in experiment [3] it was over 10 mg/kg.

As for `Cc1ccc(C(=O)CCCN2CCc3c(c4cc(F)ccc4n3-c3ccc(F)cc3)C2)cc1`, the ED50 in experiment [1] and in [2] was over 10 mg/kg in each case.

In the case of `OC(CCN1CCc2c(c3cc(F)ccc3n2-c2ccc(F)cc2)C1)c1ccc(F)cc1` (centres undefined), the ED50 in experiment [2] is over 10 mg/kg; in experiment [4], 3.2 mg/kg; in experiment [3], over 10 mg/kg.

As for `Cn1c2c(c3cc(F)ccc31)CN(CCCC(O)c1ccc(F)cc1)CC2` (centres undefined), the median effective dose (ED50) was 10 mg/kg in [5], 10 mg/kg in experiment [6] and over 32 mg/kg in [3].

As for `Cn1c2c(c3cc(F)ccc31)CN(CCCC(=O)c1ccc(F)cc1)CC2`, the values for the median effective dose (ED50) in experiment [5] and in [2] were 10 mg/kg and over 32 mg/kg, respectively.

With `Cc1ccc2c(c1)c1c(n2-c2ccccc2)CCN(C)C1`, the ED50 is 10 mg/kg in experiment [5], over 32 mg/kg in [2] and over 32 mg/kg in experiment [3].

With `OC(CCCN1CCc2c(c3cc(F)ccc3n2-c2ccc(F)cc2)C1)c1cccs1` (centres undefined), the median effective dose (ED50) was 10 mg/kg in experiment [5] and over 32 mg/kg in experiment [2].

For the molecule `CCOC(=O)N1CCc2c(c3cc(F)ccc3n2-c2ccc(F)cc2)C1`, the ED50 in [1], in [2] and in [3] was over 32 mg/kg throughout.

With `CN1CCc2c(c3cc(Cl)ccc3n2-c2ccc(F)cc2)C1.Cl`, the 50% effective dose (ED50) in experiment [7] is 1 mg/kg; in [3], over 10 mg/kg; in experiment [8] it was 3.2 mg/kg.

Turning to `Cl.O=C(CCCN1CCc2c(c3cc(F)ccc3n2-c2cccc(C(F)(F)F)c2)C1)c1ccc(F)cc1`, in [1], the ED50 was over 32 mg/kg.

For `COc1ccc(-n2c3c(c4cc(F)ccc42)CN(CCCC(O)c2ccc(F)cc2)CC3)cc1.Cl` (centres undefined), the ED50 was 1 mg/kg in experiment [1], 3.2 mg/kg in experiment [2] and over 3.2 mg/kg in experiment [3].

For the molecule `CC(C)(C)CCN1CCc2c(c3cc(F)ccc3n2-c2ccc(F)cc2)C1.Cl`, the median effective dose (ED50) in experiment [1], in experiment [2] and in experiment [3] was over 10 mg/kg each time.

Regarding `Cl.Fc1ccc(C(CCCN2CCc3c(c4cc(F)ccc4n3-c3ccc(F)cc3)C2)c2ccc(F)cc2)cc1`, the ED50 in [1], in experiment [2] and in experiment [3] was over 32 mg/kg throughout.

As for `CN1CCc2c(c3cc(Br)ccc3n2-c2ccccc2)C1.Cl`, the ED50 in experiment [4] was determined as 3.2 mg/kg.

As for `Cl.Fc1ccc(/C=C/CCN2CCc3c(c4cc(F)ccc4n3-c3ccc(F)cc3)C2)cc1`, the ED50 in experiment [9] is 1 mg/kg; in experiment [4], 3.2 mg/kg; in experiment [3], over 3.2 mg/kg.

In the case of `Cl.O=C(CCCN1CCc2c(c3cc(F)ccc3n2-c2ccc(C(F)(F)F)cc2)C1)c1ccc(F)cc1`, the ED50 in experiment [1] was over 32 mg/kg.

For the molecule `Cl.O=C(CCCCN1CCc2c(c3cc(F)ccc3n2-c2ccc(F)cc2)C1)c1ccc(F)cc1`, the 50% effective dose (ED50) in experiment [1], in experiment [2] and in [3] was over 32 mg/kg in each case.

As to `CN1CCc2c(c3ccccc3n2-c2ccccc2)C1.Cl`, the ED50 in experiment [5] was 10 mg/kg; in experiment [3], over 32 mg/kg.

For `Cl.OC(CCCN1CCc2c(c3cc(F)ccc3n2-c2cccc(C(F)(F)F)c2)C1)c1ccc(F)cc1` (centres undefined), the ED50 in experiment [1] and in experiment [2] was over 32 mg/kg each time.

With `Cl.O=C(CCCN1CCc2c(c3cc(F)ccc3n2-c2ccc(F)cc2)C1)c1ccccc1`, the ED50 in experiment [5] and in [6] was 10 mg/kg in each case.

On to `Cl.O=C(CCCN1CCc2c(c3cc(F)ccc3n2-c2ccc(F)cc2)C1)c1ccc(Cl)cc1`, for which the 50% effective dose (ED50) in experiment [4] and in experiment [8] was 3.2 mg/kg in each case.

`Cl.O=C(CCCN1CCc2c(c3cc(F)ccc3n2-c2ccc(F)cc2)C1)c1cccc(F)c1`: the ED50 was 10 mg/kg in experiment [5], 10 mg/kg in experiment [6] and over 32 mg/kg in experiment [3].

As to `Cl.OC(CCCCN1CCc2c(c3cc(F)ccc3n2-c2ccc(F)cc2)C1)c1ccc(F)cc1` (centres undefined), the ED50 in experiment [7] is 1 mg/kg; in experiment [9], 1 mg/kg; in experiment [3], over 3.2 mg/kg.

Consider `CCN1CCc2c(c3cc(F)ccc3n2-c2ccc(F)cc2)C1.Cl`, for which the 50% effective dose (ED50) in experiment [2] was over 10 mg/kg; in experiment [4] it was 3.2 mg/kg; in [3], over 10 mg/kg.

In the case of `Cl.Cl.OC(CCCN1CCc2c(c3cc(F)ccc3n2-c2ccc(F)cc2)C1)c1cccnc1` (centres undefined), the ED50 in experiment [1] and in experiment [2] was over 3.2 mg/kg throughout.

Turning to `CCCN1CCc2c(c3cc(F)ccc3n2-c2ccc(F)cc2)C1.Cl`, the values for the ED50 in experiment [2] and in experiment [4] were over 10 mg/kg and 3.2 mg/kg, respectively.

For the molecule `COc1ccc2c(c1)c1c(n2-c2ccc(F)cc2)CCN(C)C1.Cl`, the median effective dose (ED50) in experiment [1] and in experiment [2] was over 32 mg/kg throughout.

As for `Cl.Fc1ccc(-n2c3c(c4cc(F)ccc42)CN(Cc2ccccc2)CC3)cc1`, the figures for the 50% effective dose (ED50) in [2], in experiment [4] and in experiment [3] were over 10 mg/kg, 3.2 mg/kg and over 10 mg/kg, respectively.

Regarding `Cl.OC(CCCN1CCc2c(c3cc(F)ccc3n2-c2ccc(C(F)(F)F)cc2)C1)c1ccc(F)cc1` (centres undefined), the ED50 in experiment [5] and in [6] was 10 mg/kg throughout.

`CN1CCc2c(c3cc(Cl)ccc3n2-c2ccccc2)C1.Cl`: the results for the ED50 in [6], in [4] and in experiment [3] were 10 mg/kg, 3.2 mg/kg and over 32 mg/kg, respectively.

Regarding `Cl.OC(CCCN1CCc2c(c3cc(F)ccc3n2-c2ccc(F)cc2)C1)c1cccc(C(F)(F)F)c1` (centres undefined), the ED50 in experiment [1] and in experiment [2] was over 10 mg/kg in each case.

As to `COc1ccc(C(O)CCCN2CCc3c(c4cc(F)ccc4n3-c3ccc(F)cc3)C2)cc1.Cl` (centres undefined), the ED50 in [7] was 1 mg/kg; in experiment [9] it was 1 mg/kg; in experiment [3] it was over 3.2 mg/kg.

For `Cl.OC(CCCN1CCc2c(c3cc(F)ccc3n2-c2ccc(F)cc2)C1)c1ccc(Cl)c(C(F)(F)F)c1` (centres undefined), the median effective dose (ED50) in experiment [1], in experiment [2] and in experiment [3] was over 32 mg/kg in each case.

Consider `Cl.Fc1ccc(-n2c3c(c4cc(F)ccc42)CN(CCc2ccccc2)CC3)cc1`, for which the ED50 in experiment [5] is 10 mg/kg; in [2], over 32 mg/kg.

`Cl.OC(CCCN1CCc2c(c3cc(F)ccc3n2-c2cccc(F)c2)C1)c1ccc(F)cc1` (centres undefined): the ED50 in experiment [2] is over 10 mg/kg; in [4], 3.2 mg/kg.

With `COc1ccc(-n2c3c(c4cc(F)ccc42)CN(CCCC(=O)c2ccc(F)cc2)CC3)cc1.Cl`, the values for the 50% effective dose (ED50) in [5] and in experiment [2] were 10 mg/kg and over 32 mg/kg, respectively.

For `CN1CCc2c(c3cc(F)ccc3n2-c2ccccc2)C1.Cl`, the ED50 in experiment [6] was 10 mg/kg; in experiment [4], 3.2 mg/kg; in [3], over 32 mg/kg.

`COc1ccc2c(c1)c1c(n2-c2ccccc2)CCN(C)C1.Cl`: the ED50 in experiment [1] and in experiment [2] was over 32 mg/kg throughout.

Turning to `Cl.O=C(CCCN1CCc2c(c3cc(F)ccc3n2-c2ccc(F)cc2)C1)c1cccs1`, the ED50 was 10 mg/kg in experiment [5] and over 32 mg/kg in experiment [2].

`Cl.OC(CCCN1CCc2c(c3cc(F)ccc3n2-c2ccccc2F)C1)c1ccc(F)cc1` (centres undefined): the ED50 is 0.32 mg/kg in experiment [10], 1 mg/kg in experiment [9] and over 10 mg/kg in experiment [3].

As to `Cl.OC(CCCN1CCc2c(c3cc(F)ccc3n2-c2ccc(F)cc2)C1)c1ccc(Cl)cc1` (centres undefined), the median effective dose (ED50) in experiment [7] is 1 mg/kg; in [9] it was 1 mg/kg; in experiment [3], over 3.2 mg/kg.

On to `Fc1ccc(-n2c3c(c4cc(F)ccc42)CNCC3)cc1`, for which the ED50 in experiment [5] is 10 mg/kg.
